According to patent US11530244B2, “Cyclic polypeptides for PCSK9 inhibition” (priority 2018, dated 2022):
Starred links: 1 amine or outer side, 2 acyl side, 3 side chain; linkers in the order of their positions; H or OH if unused. Positions of bridges follow the written chain, without caps; N, C: chain ends. Non-standard residues stand in square brackets, D forms with d. Residues, ends and D or L forms follow the SMILES beside them. Phe(3-CH2NH2) = O=C([C@H](Cc1cccc(CN[*:3])c1)N[*:1])[*:2]; Trp(5-F) = N[C@@H](Cc1c[nH]c2ccc(F)cc12)C(=O)O; Pro(cis-4-F) = O=C(O)[C@@H]1C[C@H](F)CN1; X4 = O=C(CCSCc1cccc(CSCCN[*:1])c1)[*:2]; mXylylene = c1cc(C[*:1])cc(C[*:2])c1; d(aThr) = C[C@@H](O)[C@@H](N)C(=O)O; X22 = Oc1cc(C[*:1])cc(C[*:2])c1; Aad = N[C@@H](CCCC(=O)O)C(=O)O; aThr = C[C@H](O)[C@H](N)C(=O)O; αMeP = C[C@@]1(C(=O)O)CCCN1; Orn = NCCC[C@H](N)C(=O)O; Mpa = O=C(O)CCS

Experiments:
[1] = target: human PCSK9 / human LDLR EGFa domain interaction (Homo sapiens (Human), UniProt Q8NBP7); experiment: TR-FRET assay of inhibition of the PCSK9-LDLR protein-protein interaction; type: binding; details: TR-FRET, 20 nM human PCSK9, 20 nM human LDLR EGFa domain, 2 hours room temperature; read-out: IC50
Procedure, shortened: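 Biotinylated PCSK9 (20 nM) and His-tagged LDLR EGFa domain (20 nM) were incubated 2 h at room temperature with 5 nM Ulight-streptavidin and 5 nM Eu-anti-His in HEPES/NaCl/CaCl2 buffer with 0.01% BSA and 0.01% P20. TR-FRET was read; half-maximal inhibitory concentrations came from 4-parameter dose-response fits.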

[2] = target: PCSK9 (Homo sapiens (Human), UniProt Q8NBP7); experiment: PCSK9 Alexa FRET Standard assay (displacement of AlexaFluor647 tagged cyclic peptide Reagent A); type: binding; details: PCSK9 Alexa FRET Standard assay, 0.5 nM PCSK9, 20 nM AF cyclic peptide Reagent A; read-out: IC50
Procedure, shortened: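 TR-FRET displacement: 0.5 nM biotinylated PCSK9 with 1.25 nM Strep-Eu and 20 nM AlexaFluor-tagged cyclic peptide (final) in 50 mM HEPES pH 7.4, 0.15 M NaCl, 5 mM CaCl2, 0.01% BSA, 0.01% P20, ≥2 h at room temperature. IC50 from sigmoidal fit, converted to Ki via peptide KD; falling Eu counts flagged false positives.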

Chain of human PCSK9 / human LDLR EGFa domain interaction (Q8NBP7 153-692): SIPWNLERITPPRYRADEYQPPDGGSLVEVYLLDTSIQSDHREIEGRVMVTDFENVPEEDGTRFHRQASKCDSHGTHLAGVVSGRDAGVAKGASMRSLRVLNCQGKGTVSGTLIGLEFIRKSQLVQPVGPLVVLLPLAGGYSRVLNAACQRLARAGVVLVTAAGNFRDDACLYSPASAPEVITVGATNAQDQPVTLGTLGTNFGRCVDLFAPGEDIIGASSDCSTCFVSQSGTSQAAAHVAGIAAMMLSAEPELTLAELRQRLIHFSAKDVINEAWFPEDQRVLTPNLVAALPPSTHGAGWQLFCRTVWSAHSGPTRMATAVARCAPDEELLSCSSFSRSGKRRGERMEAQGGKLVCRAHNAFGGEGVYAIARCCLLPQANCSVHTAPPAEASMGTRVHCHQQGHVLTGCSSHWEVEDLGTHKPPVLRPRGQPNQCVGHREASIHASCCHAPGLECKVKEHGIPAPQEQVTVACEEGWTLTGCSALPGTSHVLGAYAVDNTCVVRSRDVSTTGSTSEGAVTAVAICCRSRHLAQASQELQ
Chain of human PCSK9 / human LDLR EGFa domain interaction (Q8NBP7 31-152 partner): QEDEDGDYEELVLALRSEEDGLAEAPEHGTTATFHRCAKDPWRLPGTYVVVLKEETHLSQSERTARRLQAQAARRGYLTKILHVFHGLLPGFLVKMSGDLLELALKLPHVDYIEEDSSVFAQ
Chain of PCSK9 (Q8NBP7 153-692): as the sequence (Q8NBP7 153-692) above

COc1ccc(C[C@@H]2NC(=O)[C@@H]3CCCCCCO[C@H]4C[C@@H](C(=O)N3)N(C4)C(=O)[C@H](Cc3c[nH]c4ccc(F)cc34)NC(=O)[C@H](Cc3c[nH]c4ccc(F)cc34)NC(=O)[C@@H](C)NC(=O)[C@H](CCCCN)NC(=O)CCSCc3cccc(c3)CSC[C@@H](C(N)=O)NC(=O)[C@]3(C)CCCN3C2=O)cc1 [Compound 506]
IC50 [1]: 100 to 1000 nM | IC50 [2]: 100 to 1000 nM

C[C@@]12CCCN1C(=O)[C@H](Cc1ccc(O)cc1)NC(=O)[C@H](Cc1c[nH]cn1)NC(=O)[C@H](CC(=O)O)NC(=O)[C@H](Cc1c[nH]c3ccc(F)cc13)NC(=O)[C@H](Cc1c[nH]c3ccc(F)cc13)NC(=O)CNC(=O)[C@H](CCCCN)NC(=O)CCSCc1cc(O)cc(c1)CSC[C@@H](C(N)=O)NC2=O [Compound 359] ([Mpa]KG[Trp(5-F)][Trp(5-F)]DHY[αMeP]C-NH2; linker 1-10 via X22)
IC50 [1]: 0.1 to 100 nM | IC50 [2]: 100 to 1000 nM

COc1ccc(C[C@@H]2NC(=O)[C@@H]([C@@H](C)O)NC(=O)[C@H](CCCC(=O)O)NC(=O)[C@H](Cc3c[nH]c4ccc(F)cc34)NC(=O)[C@H](Cc3cccc(CN)c3)NC(=O)[C@@H](C)NC(=O)[C@H](C)NC(=O)CCSCc3cccc(c3)CSCCNC(=O)[C@]3(C)CCCN3C2=O)cc1 [Compound 346] (cyclo(A[dA][Phe(3-CH2NH2)][Trp(5-F)][Aad][d(aThr)]Y(Me)[αMeP][X4]))
IC50 [1]: 0.1 to 100 nM | IC50 [2]: 1000 to 12100 nM

COc1ccc(C[C@@H]2NC(=O)[C@@H]3CC/C=C\CO[C@H]4C[C@@H](C(=O)N3)N(C4)C(=O)[C@H](Cc3c[nH]c4ccc(F)cc34)NC(=O)[C@H](Cc3c[nH]c4ccc(F)cc34)NC(=O)[C@@H](C)NC(=O)[C@H](CCCCN)NC(=O)CCSCc3cccc(c3)CSC[C@@H](C(N)=O)NC(=O)[C@]3(C)CCCN3C2=O)cc1 [Compound 509]
IC50 [1]: 100 to 1000 nM | IC50 [2]: 0.11 to 100 nM

COc1ccc(C[C@@H]2NC(=O)[C@H]([C@@H](C)O)NC(=O)[C@@H]3C[C@H](F)CN3C(=O)[C@H](Cc3c[nH]c4ccc(F)cc34)NC(=O)[C@H](Cc3c[nH]c4ccc(F)cc34)NC(=O)[C@@H](C)NC(=O)[C@H](CCCCN)NC(=O)CCC/C=C\Cc3ccc(cc3)C[C@@H](C(N)=O)NC(=O)[C@]3(C)CCCN3C2=O)cc1 [Compound 132]
IC50 [1]: 21000 to 50000 nM | IC50 [2]: 21000 to 50000 nM

C[C@@]12CCCN1C(=O)[C@H](Cc1ccc(O)cc1)NC(=O)[C@H](Cc1cnc[nH]1)NC(=O)[C@H](CC(=O)O)NC(=O)[C@H](Cc1c[nH]c3ccc(F)cc13)NC(=O)[C@H](Cc1c[nH]c3ccc(F)cc13)NC(=O)CNC(=O)[C@H](CCCN)NC(=O)CCSCc1cccc(c1)CSC[C@@H](C(N)=O)NC2=O [Compound 248] ([Mpa][Orn]G[Trp(5-F)][Trp(5-F)]DHY[αMeP]C-NH2; linker 1-10 via mXylylene)
IC50 [1]: 0.1 to 100 nM | IC50 [2]: 100 to 1000 nM

COc1ccc(C[C@@H]2NC(=O)[C@H](Cc3cnc[nH]3)NC(=O)[C@H](CC(=O)O)NC(=O)[C@H](Cc3c[nH]c4ccc(F)cc34)NC(=O)[C@H](Cc3c[nH]c4ccc(F)cc34)NC(=O)[C@@H](C)NC(=O)[C@H](CCCCN)NC(=O)[C@@H](NC(C)=O)CCCc3cn(nn3)-c3ccc(cc3)C[C@@H](C(N)=O)NC(=O)[C@]3(C)CCCN3C2=O)cc1 [Compound 353]
IC50 [1]: 21000 to 50000 nM | IC50 [2]: 21000 to 50000 nM

CCCCCCCCCCCCCCCC(=O)N[C@@H](CCC(=O)NCCOCCOCC(=O)NCCOCCOCC(=O)NCCCC[C@H](NC(=O)CCOCCOCCOCCOCCOCCOCCOCCOCCNC(=O)CCOCCOCCOCCOCCOCCOCCOCCOCCOCCOCCOCCOCCNC(=O)[C@@H]1CSCc2cccc(c2)CSCCC(=O)N[C@@H](C)C(=O)N[C@H](C)C(=O)N[C@@H](Cc2c[nH]c3ccc(F)cc23)C(=O)N[C@@H](Cc2c[nH]c3ccc(F)cc23)C(=O)[C@@H]2C[C@H](F)CN2C(=O)N[C@@H]([C@@H](C)O)C(=O)N[C@@H](Cc2ccc(O)cc2)C(=O)N2CCC[C@@]2(C)C(=O)N1)C(N)=O)C(=O)O [Compound 133]
IC50 [1]: 1000 to 12100 nM | IC50 [2]: 1000 to 12100 nM

COc1ccc(C[C@@H]2NC(=O)[C@H]([C@H](C)OC)NC(=O)[C@@H]3C[C@H](F)CN3C(=O)[C@H](Cc3c[nH]c4ccc(F)cc34)NC(=O)[C@H](Cc3c[nH]c4ccc(F)cc34)NC(=O)[C@@H](C)NC(=O)[C@H](CCCCN)NC(=O)CCSCc3cccc(c3)CSC[C@@H](C(N)=O)NC(=O)[C@]3(C)CCCN3C2=O)cc1 [Compound 072] ([Mpa]K[dA][Trp(5-F)][Trp(5-F)][Pro(cis-4-F)][aThr](Me)Y(Me)[αMeP]C-NH2; linker 1-10 via mXylylene)
IC50 [1]: 100 to 1000 nM | IC50 [2]: 1000 to 12100 nM
